Measured values published in ChEMBL document CHEMBL1201862, “PubChem BioAssay data set” (2004).
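Cultured in 96-well plates, cells were exposed to test compound for 48 hours across five concentrations. Here, GI50 denotes the concentration required for 50% inhibition of growth.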 The source made the active and inactive calls. No stated cut-off is given here; in the data, active = GI50 up to about 1.1 µM and inactive = higher.

Key:
Assay in all cases: NCI anticancer screen, dose series, 48 h
786-0 = system: 786-0
A498 = system: A498
A549 = system: A549
ACHN = system: ACHN
BT-549 = system: BT-549
CAKI-1 = system: CAKI-1
CCRF-CEM = system: CCRF-CEM
COLO 205 = system: COLO 205
DU-145 = system: DU-145
EKVX = system: EKVX
HCC 2998 = system: HCC 2998
HCT-116 = system: HCT-116
HCT-15 = system: HCT-15
HOP-62 = system: HOP-62
HOP-92 = system: HOP-92
HT-29 = system: HT-29
Hs-578T = system: Hs-578T
IGROV-1 = system: IGROV-1
K562 = system: K562
KM12 = system: KM12
LOX IMVI = system: LOX IMVI
M14 = system: M14
MCF7 = system: MCF7
MDA-MB-231 = system: MDA-MB-231
MDA-MB-435 = system: MDA-MB-435
MDA-N = system: MDA-N
MOLT-4 = system: MOLT-4
Malme-3M = system: Malme-3M
NCI-H226 = system: NCI-H226
NCI-H23 = system: NCI-H23
NCI-H460 = system: NCI-H460
NCI-H522 = system: NCI-H522
NCI/ADR-RES = system: NCI/ADR-RES
OVCAR-3 = system: OVCAR-3
OVCAR-4 = system: OVCAR-4
OVCAR-5 = system: OVCAR-5
OVCAR-8 = system: OVCAR-8
PC-3 = system: PC-3
RPMI-8226 = system: RPMI-8226
RXF 393 = system: RXF 393
SF-268 = system: SF-268
SF-295 = system: SF-295
SF-539 = system: SF-539
SK-MEL-28 = system: SK-MEL-28
SK-MEL-2 = system: SK-MEL-2
SK-MEL-5 = system: SK-MEL-5
SK-OV-3 = system: SK-OV-3
SN12C = system: SN12C
SNB-19 = system: SNB-19
SNB-75 = system: SNB-75
SW-620 = system: SW-620
T47D = system: T47D
TK-10 = system: TK-10
U-251 = system: U-251
UACC-257 = system: UACC-257
UACC-62 = system: UACC-62
UO-31 = system: UO-31
HL-60 = system: HL-60

## C[C@]12CC/C(=N\OCCN3CCCCC3)C=C1CCC1C2CC[C@@]2(C)C1CC[C@]2(C)O (some centres undefined)
786-0
  GI50: 5.14 µM (inactive)
A498
  GI50: 3.14 µM (inactive)
A549
  GI50: 12.2 µM (inactive)
ACHN
  GI50: 11.4 µM (inactive)
BT-549
  GI50: 10 µM (inactive)
CAKI-1
  GI50: 6.75 µM (inactive)
CCRF-CEM
  GI50: 3.2 µM (inactive)
COLO 205
  GI50: 8.17 µM (inactive)
DU-145
  GI50: 13.2 µM (inactive)
EKVX
  GI50: 16.2 µM (inactive)
HCC 2998
  GI50: 9.27 µM (inactive)
HCT-116
  GI50: 7.38 µM (inactive)
HCT-15
  GI50: 5 µM
HOP-62
  GI50: 15.2 µM (inactive)
HOP-92
  GI50: 8.41 µM (inactive)
HT-29
  GI50: 2.28 µM (inactive)
Hs-578T
  GI50: 8.61 µM (inactive)
IGROV-1
  GI50: 11.9 µM (inactive)
K562
  GI50: 5.26 µM (inactive)
KM12
  GI50: 10.4 µM (inactive)
LOX IMVI
  GI50: 4.11 µM (inactive)
M14
  GI50: 14.2 µM (inactive)
MCF7
  GI50: 4.75 µM (inactive)
MDA-MB-231
  GI50: 11.7 µM (inactive)
MDA-MB-435
  GI50: 2.3 µM (inactive)
MDA-N
  GI50: 3.32 µM (inactive)
MOLT-4
  GI50: 2.64 µM (inactive)
Malme-3M
  GI50: 11.2 µM (inactive)
NCI-H226
  GI50: 3.3 µM (inactive)
NCI-H23
  GI50: 13.4 µM (inactive)
NCI-H460
  GI50: 5.26 µM (inactive)
NCI-H522
  GI50: 2.24 µM (inactive)
NCI/ADR-RES
  GI50: 5.27 µM (inactive)
OVCAR-3
  GI50: 17 µM (inactive)
OVCAR-4
  GI50: 19.8 µM (inactive)
OVCAR-5
  GI50: 19.6 µM (inactive)
OVCAR-8
  GI50: 11.2 µM (inactive)
PC-3
  GI50: 10.8 µM (inactive)
RPMI-8226
  GI50: 12.7 µM (inactive)
RXF 393
  GI50: 16.2 µM (inactive)
SF-268
  GI50: 13.4 µM (inactive)
SF-295
  GI50: 3.5 µM (inactive)
SF-539
  GI50: 7.35 µM (inactive)
SK-MEL-28
  GI50: 11.2 µM (inactive)
SK-MEL-2
  GI50: 13.1 µM (inactive)
SK-MEL-5
  GI50: 16.6 µM (inactive)
SK-OV-3
  GI50: 16.7 µM (inactive)
SN12C
  GI50: 15.3 µM (inactive)
SNB-19
  GI50: 11.9 µM (inactive)
SNB-75
  GI50: 7.35 µM (inactive)
SW-620
  GI50: 5.65 µM (inactive)
T47D
  GI50: 13.1 µM (inactive)
TK-10
  GI50: 12.4 µM (inactive)
U-251
  GI50: 10.7 µM (inactive)
UACC-257
  GI50: 5.57 µM (inactive)
UACC-62
  GI50: 9.86 µM (inactive)
UO-31
  GI50: 11.1 µM (inactive)

## O=C([O-])C[n+]1ccccc1.c1ccncc1
786-0
  GI50: > 100 µM (inactive)
A498
  GI50: > 100 µM (inactive)
A549
  GI50: > 100 µM (inactive)
ACHN
  GI50: > 100 µM (inactive)
BT-549
  GI50: > 100 µM (inactive)
CAKI-1
  GI50: > 100 µM (inactive)
CCRF-CEM
  GI50: > 100 µM (inactive)
COLO 205
  GI50: > 100 µM (inactive)
DU-145
  GI50: > 100 µM (inactive)
EKVX
  GI50: > 100 µM (inactive)
HCT-116
  GI50: > 100 µM (inactive)
HCT-15
  GI50: > 100 µM
HL-60
  GI50: 97.1 µM (inactive)
HOP-62
  GI50: > 100 µM (inactive)
HOP-92
  GI50: > 100 µM (inactive)
HT-29
  GI50: > 100 µM (inactive)
Hs-578T
  GI50: > 100 µM (inactive)
IGROV-1
  GI50: > 100 µM (inactive)
K562
  GI50: > 100 µM (inactive)
KM12
  GI50: > 100 µM (inactive)
LOX IMVI
  GI50: > 100 µM (inactive)
M14
  GI50: > 100 µM (inactive)
MCF7
  GI50: > 100 µM (inactive)
MDA-MB-231
  GI50: > 100 µM (inactive)
MDA-MB-435
  GI50: > 100 µM (inactive)
MDA-N
  GI50: > 100 µM (inactive)
MOLT-4
  GI50: 33.1 µM (inactive)
Malme-3M
  GI50: > 100 µM (inactive)
NCI-H226
  GI50: > 100 µM (inactive)
NCI-H23
  GI50: > 100 µM (inactive)
NCI-H460
  GI50: > 100 µM (inactive)
NCI-H522
  GI50: > 100 µM (inactive)
NCI/ADR-RES
  GI50: > 100 µM (inactive)
OVCAR-3
  GI50: > 100 µM (inactive)
OVCAR-4
  GI50: > 100 µM (inactive)
OVCAR-5
  GI50: > 100 µM (inactive)
OVCAR-8
  GI50: > 100 µM (inactive)
PC-3
  GI50: > 100 µM (inactive)
RPMI-8226
  GI50: > 100 µM (inactive)
RXF 393
  GI50: > 100 µM (inactive)
SF-268
  GI50: > 100 µM (inactive)
SF-295
  GI50: > 100 µM (inactive)
SF-539
  GI50: > 100 µM (inactive)
SK-MEL-28
  GI50: > 100 µM (inactive)
SK-MEL-2
  GI50: > 100 µM (inactive)
SK-MEL-5
  GI50: > 100 µM (inactive)
SK-OV-3
  GI50: > 100 µM (inactive)
SN12C
  GI50: > 100 µM (inactive)
SNB-19
  GI50: > 100 µM (inactive)
SNB-75
  GI50: > 100 µM (inactive)
SW-620
  GI50: > 100 µM (inactive)
T47D
  GI50: > 100 µM (inactive)
TK-10
  GI50: > 100 µM (inactive)
U-251
  GI50: > 100 µM (inactive)
UACC-257
  GI50: > 100 µM (inactive)
UACC-62
  GI50: > 100 µM (inactive)
UO-31
  GI50: > 100 µM (inactive)
